# Molecular target: T1, integrin α4β7 on α4β7+ memory T helper cells (Homo sapiens, UniProt P13612+P26010)
# T1 construct: endogenous in cells
# T1 sequence (P13612 34-1032): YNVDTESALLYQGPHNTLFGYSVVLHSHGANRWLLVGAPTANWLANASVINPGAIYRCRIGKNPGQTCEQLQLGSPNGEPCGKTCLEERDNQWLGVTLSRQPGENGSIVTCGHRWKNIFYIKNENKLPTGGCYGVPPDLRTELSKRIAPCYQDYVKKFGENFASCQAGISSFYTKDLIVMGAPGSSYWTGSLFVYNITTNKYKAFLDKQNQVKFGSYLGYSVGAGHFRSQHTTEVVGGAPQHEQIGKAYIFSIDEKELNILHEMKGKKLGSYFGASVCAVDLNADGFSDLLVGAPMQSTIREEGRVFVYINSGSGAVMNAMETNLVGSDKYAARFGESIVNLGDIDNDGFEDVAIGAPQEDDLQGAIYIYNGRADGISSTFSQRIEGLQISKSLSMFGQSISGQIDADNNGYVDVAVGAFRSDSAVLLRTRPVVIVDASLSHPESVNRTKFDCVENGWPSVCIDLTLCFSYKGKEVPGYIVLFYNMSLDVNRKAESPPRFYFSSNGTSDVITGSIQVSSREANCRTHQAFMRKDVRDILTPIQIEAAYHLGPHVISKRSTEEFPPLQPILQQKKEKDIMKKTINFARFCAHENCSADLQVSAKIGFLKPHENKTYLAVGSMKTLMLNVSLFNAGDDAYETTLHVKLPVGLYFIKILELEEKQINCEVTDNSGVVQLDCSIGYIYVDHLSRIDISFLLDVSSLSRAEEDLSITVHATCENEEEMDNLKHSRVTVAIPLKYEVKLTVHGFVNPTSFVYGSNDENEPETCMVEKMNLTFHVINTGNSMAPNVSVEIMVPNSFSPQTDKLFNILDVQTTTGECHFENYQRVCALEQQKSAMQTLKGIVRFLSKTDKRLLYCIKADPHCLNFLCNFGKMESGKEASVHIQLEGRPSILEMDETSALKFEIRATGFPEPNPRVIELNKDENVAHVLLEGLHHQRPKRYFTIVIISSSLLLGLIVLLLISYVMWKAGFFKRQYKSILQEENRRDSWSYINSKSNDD
# T1 sequence (P26010 20-798): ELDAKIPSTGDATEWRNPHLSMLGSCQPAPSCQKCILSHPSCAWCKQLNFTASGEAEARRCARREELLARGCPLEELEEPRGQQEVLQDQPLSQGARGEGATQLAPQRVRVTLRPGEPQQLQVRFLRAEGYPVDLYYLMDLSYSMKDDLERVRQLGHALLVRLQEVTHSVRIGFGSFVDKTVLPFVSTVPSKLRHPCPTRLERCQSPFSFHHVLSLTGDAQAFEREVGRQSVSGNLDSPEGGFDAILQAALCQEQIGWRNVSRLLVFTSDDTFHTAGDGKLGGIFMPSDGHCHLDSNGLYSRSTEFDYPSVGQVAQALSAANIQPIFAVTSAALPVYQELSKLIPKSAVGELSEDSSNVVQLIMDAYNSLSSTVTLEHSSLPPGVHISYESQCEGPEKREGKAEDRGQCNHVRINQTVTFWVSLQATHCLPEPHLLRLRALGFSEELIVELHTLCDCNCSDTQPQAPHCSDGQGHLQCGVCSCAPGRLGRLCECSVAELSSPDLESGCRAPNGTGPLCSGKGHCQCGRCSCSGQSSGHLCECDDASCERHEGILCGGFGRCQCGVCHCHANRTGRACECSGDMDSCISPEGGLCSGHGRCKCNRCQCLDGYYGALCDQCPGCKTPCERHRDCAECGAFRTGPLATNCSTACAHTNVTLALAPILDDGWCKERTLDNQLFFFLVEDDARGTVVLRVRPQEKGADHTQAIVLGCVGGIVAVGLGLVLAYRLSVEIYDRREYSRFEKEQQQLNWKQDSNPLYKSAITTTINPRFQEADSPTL
# Assay: MAdCAM-1 competition / receptor occupancy assay in human whole blood, α4β7-positive Th memory cells
# Type: cell-based
# Conditions: human whole blood, FIG. 7; read-out: EC50, competition with saturating amount of MAdCAM
# Procedure, shortened: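 Human heparinised whole blood; saturating biotinylated rhMAdCAM-1-Fc or rhVCAM-1-Fc bound 1 h at RT, stained in buffer with 4 mM MnCl2, detected by streptavidin-APC flow cytometry on gated CD45+CD3+CD4+CD45RO+CD49d+ β7+ or β7-lo cells. Occupancy = 100−((% ligand-positive cells with compound/% ligand-positive cells DMSO)*100).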
row,SMILES,EC50 [nM]
1,CC(C)C[C@@H]1NC(=O)c2ccc(-c3ccc(N4CCN(C(=O)c5ccccc5-c5ccccc5C(=O)N5CCN(c6ccc(-c7ccc8cc7CNC(=O)[C@@H]7CCCN7[C@H](C(=O)NC(C)(C)C)[C@H](C)NC(=O)[C@H]([C@@H](C)O)NC(=O)[C@H](CC(=O)O)NC(=O)[C@H](CC(C)C)NC8=O)cc6)CC5)CC4)cc3)c(c2)CNC(=O)[C@@H]2CCCN2[C@H](C(=O)NC(C)(C)C)[C@H](C)NC(=O)[C@H]([C@@H](C)O)NC(=O)[C@H](CC(=O)O)NC1=O [Compound 517],38

# Same assay, conditions: human whole blood, inhibition of MAdCAM-1 binding to α4β7-positive Th memory cells, FACS; read-out: MADCAM FACS α4β7 Th mem
row,SMILES,IC50 [nM]
1,CC(C)C[C@@H]1NC(=O)c2ccc(-c3ccc(N4CCN(CC(=O)N5CCN(c6ccc(-c7ccc8cc7CNC(=O)[C@@H]7CCCN7[C@H](C(=O)NC(C)(C)C)[C@H](C)NC(=O)[C@H]([C@@H](C)O)NC(=O)[C@H](CC(=O)O)NC(=O)[C@H](CC(C)C)NC8=O)cc6)CC5)CC4)cc3)c(c2)CNC(=O)[C@@H]2CCCN2[C@H](C(=O)NC(C)(C)C)[C@H](C)NC(=O)[C@H]([C@@H](C)O)NC(=O)[C@H](CC(=O)O)NC1=O [Compound 481],67
2,CC(C)C[C@@H]1NC(=O)c2ccc(-c3ccc(N4CCN(CCC(=O)N5CCN(c6ccc(-c7ccc8cc7CNC(=O)[C@@H]7CCCN7[C@H](C(=O)NC(C)(C)C)[C@H](C)NC(=O)[C@H]([C@@H](C)O)NC(=O)[C@H](CC(=O)O)NC(=O)[C@H](CC(C)C)NC8=O)cc6)CC5)CC4)cc3)c(c2)CNC(=O)[C@@H]2CCCN2[C@H](C(=O)NC(C)(C)C)[C@H](C)NC(=O)[C@H]([C@@H](C)O)NC(=O)[C@H](CC(=O)O)NC1=O [Compound 482],30
3,CC(C)C[C@@H]1NC(=O)c2ccc(-c3ccc(N4CCN(C(=O)CCC(=O)N5CCN(c6ccc(-c7ccc8cc7CNC(=O)[C@@H]7CCCN7[C@H](C(=O)NC(C)(C)C)[C@H](C)NC(=O)[C@H]([C@@H](C)O)NC(=O)[C@H](CC(=O)O)NC(=O)[C@H](CC(C)C)NC8=O)cc6)CC5)CC4)cc3)c(c2)CNC(=O)[C@@H]2CCCN2[C@H](C(=O)NC(C)(C)C)[C@H](C)NC(=O)[C@H]([C@@H](C)O)NC(=O)[C@H](CC(=O)O)NC1=O [Compound 484],45
4,CC(C)C[C@@H]1NC(=O)c2ccc(-c3ccc(N4CCN(C(=O)C[C@@H](N)C(=O)N5CCN(c6ccc(-c7ccc8cc7CNC(=O)[C@@H]7CCCN7[C@H](C(=O)NC(C)(C)C)[C@H](C)NC(=O)[C@H]([C@@H](C)O)NC(=O)[C@H](CC(=O)O)NC(=O)[C@H](CC(C)C)NC8=O)cc6)CC5)CC4)cc3)c(c2)CNC(=O)[C@@H]2CCCN2[C@H](C(=O)NC(C)(C)C)[C@H](C)NC(=O)[C@H]([C@@H](C)O)NC(=O)[C@H](CC(=O)O)NC1=O [Compound 493],94
5,CC(C)C[C@@H]1NC(=O)c2ccc(-c3ccc(N4CCN(C(=O)CC[C@H](N)C(=O)N5CCN(c6ccc(-c7ccc8cc7CNC(=O)[C@@H]7CCCN7[C@H](C(=O)NC(C)(C)C)[C@H](C)NC(=O)[C@H]([C@@H](C)O)NC(=O)[C@H](CC(=O)O)NC(=O)[C@H](CC(C)C)NC8=O)cc6)CC5)CC4)cc3)c(c2)CNC(=O)[C@@H]2CCCN2[C@H](C(=O)NC(C)(C)C)[C@H](C)NC(=O)[C@H]([C@@H](C)O)NC(=O)[C@H](CC(=O)O)NC1=O [Compound 494],128
6,CC(C)C[C@@H]1NC(=O)c2ccc(-c3ccc(N4CCN(Cc5cccc(CN6CCN(c7ccc(-c8ccc9cc8CNC(=O)[C@@H]8CCCN8[C@H](C(=O)NC(C)(C)C)[C@H](C)NC(=O)[C@H]([C@@H](C)O)NC(=O)[C@H](CC(=O)O)NC(=O)[C@H](CC(C)C)NC9=O)cc7)CC6)c5)CC4)cc3)c(c2)CNC(=O)[C@@H]2CCCN2[C@H](C(=O)NC(C)(C)C)[C@H](C)NC(=O)[C@H]([C@@H](C)O)NC(=O)[C@H](CC(=O)O)NC1=O [Compound 499],41
7,CC(C)C[C@@H]1NC(=O)c2ccc(-c3ccc(N4CCN(Cc5ccc(CN6CCN(c7ccc(-c8ccc9cc8CNC(=O)[C@@H]8CCCN8[C@H](C(=O)NC(C)(C)C)[C@H](C)NC(=O)[C@H]([C@@H](C)O)NC(=O)[C@H](CC(=O)O)NC(=O)[C@H](CC(C)C)NC9=O)cc7)CC6)cc5)CC4)cc3)c(c2)CNC(=O)[C@@H]2CCCN2[C@H](C(=O)NC(C)(C)C)[C@H](C)NC(=O)[C@H]([C@@H](C)O)NC(=O)[C@H](CC(=O)O)NC1=O [Compound 500],55
8,CC(C)C[C@@H]1NC(=O)c2ccc(-c3ccc(N4CCN(C(=O)CCOCCOCCOCCOCCOCCOCCOCCOCCOCCOCCC(=O)N5CCN(c6ccc(-c7ccc8cc7CNC(=O)[C@@H]7CCCN7[C@H](C(=O)NC(C)(C)C)[C@H](C)NC(=O)[C@H]([C@@H](C)O)NC(=O)[C@H](CC(=O)O)NC(=O)[C@H](CC(C)C)NC8=O)cc6)CC5)CC4)cc3)c(c2)CNC(=O)[C@@H]2CCCN2[C@H](C(=O)NC(C)(C)C)[C@H](C)NC(=O)[C@H]([C@@H](C)O)NC(=O)[C@H](CC(=O)O)NC1=O [Compound 511],182
9,CC(C)C[C@@H]1NC(=O)c2ccc(-c3ccc(N4CCN(C(=O)c5ccccc5-c5ccccc5C(=O)N5CCN(c6ccc(-c7ccc8cc7CNC(=O)[C@@H]7CCCN7[C@H](C(=O)NC(C)(C)C)[C@H](C)NC(=O)[C@H]([C@@H](C)O)NC(=O)[C@H](CC(=O)O)NC(=O)[C@H](CC(C)C)NC8=O)cc6)CC5)CC4)cc3)c(c2)CNC(=O)[C@@H]2CCCN2[C@H](C(=O)NC(C)(C)C)[C@H](C)NC(=O)[C@H]([C@@H](C)O)NC(=O)[C@H](CC(=O)O)NC1=O [Compound 517],43
10,CC(C)C[C@@H]1NC(=O)c2ccc(-c3ccc(N4CCN(C(=O)c5cc(C(=O)N6CCN(c7ccc(-c8ccc9cc8CNC(=O)[C@@H]8CCCN8[C@H](C(=O)NC(C)(C)C)[C@H](C)NC(=O)[C@H]([C@@H](C)O)NC(=O)[C@H](CC(=O)O)NC(=O)[C@H](CC(C)C)NC9=O)cc7)CC6)cc(C(=O)N6CCN(c7ccc(-c8ccc9cc8CNC(=O)[C@@H]8CCCN8[C@H](C(=O)NC(C)(C)C)[C@H](C)NC(=O)[C@H]([C@@H](C)O)NC(=O)[C@H](CC(=O)O)NC(=O)[C@H](CC(C)C)NC9=O)cc7)CC6)c5)CC4)cc3)c(c2)CNC(=O)[C@@H]2CCCN2[C@H](C(=O)NC(C)(C)C)[C@H](C)NC(=O)[C@H]([C@@H](C)O)NC(=O)[C@H](CC(=O)O)NC1=O [Compound 520],1.2
11,CC(C)C[C@@H]1NC(=O)C[C@H](CCCCN)N(C)C(=O)[C@H](CCCCNC(=O)CCCCCCCCC(=O)NCCCC[C@@H]2NC(=O)[C@@H]3CCCN3[C@H](C(=O)NC(C)(C)C)[C@H](C)NC(=O)[C@H]([C@@H](C)O)NC(=O)[C@H](CC(=O)O)NC(=O)[C@H](CC(C)C)NC(=O)C[C@H](CCCCN)N(C)C2=O)NC(=O)[C@@H]2CCCN2[C@H](C(=O)NC(C)(C)C)[C@H](C)NC(=O)[C@H]([C@@H](C)O)NC(=O)[C@H](CC(=O)O)NC1=O [Compound 530],33
12,CC(C)C[C@@H]1NC(=O)C[C@H](CCCCN)N(C)C(=O)[C@H](CCCCNC(=O)CCCCCC(=O)NCCCC[C@@H]2NC(=O)[C@@H]3CCCN3[C@H](C(=O)NC(C)(C)C)[C@H](C)NC(=O)[C@H]([C@@H](C)O)NC(=O)[C@H](CC(=O)O)NC(=O)[C@H](CC(C)C)NC(=O)C[C@H](CCCCN)N(C)C2=O)NC(=O)[C@@H]2CCCN2[C@H](C(=O)NC(C)(C)C)[C@H](C)NC(=O)[C@H]([C@@H](C)O)NC(=O)[C@H](CC(=O)O)NC1=O [Compound 532],57
13,CC(C)C[C@@H]1NC(=O)C[C@H](CCCCN)N(C)C(=O)[C@H](CCCCNC(=O)CCCCCCCC(=O)NCCCC[C@@H]2NC(=O)[C@@H]3CCCN3[C@H](C(=O)NC(C)(C)C)[C@H](C)NC(=O)[C@H]([C@@H](C)O)NC(=O)[C@H](CC(=O)O)NC(=O)[C@H](CC(C)C)NC(=O)C[C@H](CCCCN)N(C)C2=O)NC(=O)[C@@H]2CCCN2[C@H](C(=O)NC(C)(C)C)[C@H](C)NC(=O)[C@H]([C@@H](C)O)NC(=O)[C@H](CC(=O)O)NC1=O [Compound 533],46

# Same assay, conditions: whole blood from a single donor, FIG. 10; read-out: IC50, inhibition of MAdCAM-1 binding to primary cells
row,SMILES,IC50 [nM]
1,CC(C)C[C@@H]1NC(=O)C[C@H](CCCCN)N(C)C(=O)[C@H](CCCCNC(=O)CCCCCCCCC(=O)NCCCC[C@@H]2NC(=O)[C@@H]3CCCN3[C@H](C(=O)NC(C)(C)C)[C@H](C)NC(=O)[C@H]([C@@H](C)O)NC(=O)[C@H](CC(=O)O)NC(=O)[C@H](CC(C)C)NC(=O)C[C@H](CCCCN)N(C)C2=O)NC(=O)[C@@H]2CCCN2[C@H](C(=O)NC(C)(C)C)[C@H](C)NC(=O)[C@H]([C@@H](C)O)NC(=O)[C@H](CC(=O)O)NC1=O [Compound 530],87 to 141
